In brackets after ≈: the same amount, converted by molar mass. Several values for one entry are separate records, joined by “and”; a condition that tells them apart may be missing. Identical values can stand only once.
Tests used:
[1] = system: panel of selected bacterial species; assay: Spectrum of activity, average MIC per bacterial group; assay type: cell-based
E. coli AG100 = assay: Intracellular ATP levels determination; assay type: cell-based, Escherichia coli
Method: The ATP levels were measured using the ATP Determination Kit (Invitrogen, Life Technologies, Paisley, UK) according to the manufacturer’s instructions. […] A drug-free control was included in the assay to monitor the normal growth of the strain. Aliquots of bacteria were collected at 0, 1, 2, 3, 4, 5, 6, and 24 h of incubation at 37 °C, with shaking, inactivated by heating and immediately deep frozen. […] CPZ and PAβN were included for comparison.

[2] = system: Salmonella enterica serovar Enteritidis NCTC13349; assay: MIC, antibacterial specificity; assay type: cell-based
[3] = system: Staphylococcus aureus ATCC25923; assay: MIC, antibacterial specificity; assay type: cell-based
[4] = Cytotoxicity, AlamarBlue method; assay type: cell-based, human; settings: human
In short: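 Macrophages derived from healthy-donor PBMC monocytes (5 × 10^4 cells/well) were treated with compound for 72 h at 37 °C. Viability was read by AlamarBlue (10%, overnight, 540/590 nm fluorescence). Cytotoxicity was read as LDH release in serum-free medium, with specific lysis = (treated − spontaneous)/(maximum − spontaneous) × 100.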

## CCCOc1ccc(-c2cc(OCCN3CCNCC3)c3ccccc3n2)cc1 [PQQ4R, 4-(2-(piperazin-1-yl)ethoxy)-2-(4-propoxyphenyl) quinolone]
[1]; Gram-negative bacteria
  average MIC: ≥ 128 µg/mL
[1]; Gram-positive bacteria
  average MIC: 50 µg/mL
[1]; acid-fast bacteria
  average MIC: 32 µg/mL
E. coli AG100; AG100, 320 µM (1/2 MIC) and 640 µM (MIC), same level as drug-free control
  ATP levels during the first 3 h of exposure: remained constant
E. coli AG100; AG100, half MIC (320 µM), 24 h of exposure
  ATP production less than that of the drug-free control: 80%
E. coli AG100; PQQ4R MIC, T1
  ATP - luciferase:Lum: 438 and 716
E. coli AG100; PQQ4R MIC, T2
  ATP - luciferase:Lum: 453 and 417
E. coli AG100; PQQ4R MIC, T3
  ATP - luciferase:Lum: 588 and 696
E. coli AG100; PQQ4R MIC, T4
  ATP - luciferase:Lum: 454 and 413
E. coli AG100; PQQ4R MIC, T5
  ATP - luciferase:Lum: 701 and 675
E. coli AG100; PQQ4R MIC, T6
  ATP - luciferase:Lum: 445 and 588
E. coli AG100; PQQ4R MIC, T24
  ATP - luciferase:Lum: 545 and 530
E. coli AG100; PQQ4R half MIC, T1
  ATP - luciferase:Lum: 406 and 431
E. coli AG100; PQQ4R half MIC, T2
  ATP - luciferase:Lum: 561 and 463
E. coli AG100; PQQ4R half MIC, T3
  ATP - luciferase:Lum: 373 and 549
E. coli AG100; PQQ4R half MIC, T4
  ATP - luciferase:Lum: 467 and 479
E. coli AG100; PQQ4R half MIC, T5
  ATP - luciferase:Lum: 511 and 436
E. coli AG100; PQQ4R half MIC, T6
  ATP - luciferase:Lum: 560 and 587
E. coli AG100; PQQ4R half MIC, T24
  ATP - luciferase:Lum: 4358 and 4198
[2]
  MIC: 256 µg/mL (≈ 654 µM)
[3]
  MIC: 50 µg/mL (≈ 128 µM)

## CN(C)CCCN1c2ccccc2Sc2ccc(Cl)cc21 [CPZ, chlorpromazine]
[4]
  CC50 at 3 days: 22.2 µM
  CC90 at 3 days: 37 µM

— publication PMC5433425 (PeerJ, 2017)
